Key:
[1] = test system: Penicillium; experiment: Antifungal activity against Penicillium at 10 ug/ml for 48 hrs by disc diffusion method; type: functional
[2] = test system: Candida albicans; experiment: Antifungal activity against Candida albicans at 10 ug/ml for 48 hrs by disc diffusion method; type: functional
[3] = test system: Aspergillus niger; experiment: Antifungal activity against Aspergillus niger at 10 ug/ml for 48 hrs by disc diffusion method; type: functional
[4] = test system: Pseudomonas aeruginosa; experiment: Antibacterial activity against Pseudomonas aeruginosa at 10 ug/ml for 24 hrs by disc diffusion method; type: functional
[5] = test system: Escherichia coli; experiment: Antibacterial activity against Escherichia coli at 10 ug/ml for 24 hrs by disc diffusion method; type: functional
[6] = test system: Bacillus cereus; experiment: Antibacterial activity against Bacillus cereus at 10 ug/ml for 24 hrs by disc diffusion method; type: functional
[7] = test system: Staphylococcus aureus; experiment: Antibacterial activity against Staphylococcus aureus at 10 ug/ml for 24 hrs by disc diffusion method; type: functional
[8] = test system: Bacillus subtilis; experiment: Antibacterial activity against Bacillus subtilis at 10 ug/ml for 24 hrs by disc diffusion method; type: functional
[9] = test system: Micrococcus; experiment: Antibacterial activity against Micrococcus sp. at 10 ug/ml for 24 hrs by disc diffusion method; type: functional
[10] = test system: Shigella dysenteriae; experiment: Antibacterial activity against Shigella dysenteriae at 10 ug/ml for 24 hrs by disc diffusion method; type: functional
[11] = test system: Artemia salina; experiment: Toxicity against Artemia salina; type: organism-based; conditions: in vivo

Compound	Activity [1] [mm]	Activity [2] [mm]	Activity [3] [mm]	Activity [4] [mm]	Activity [5] [mm]	Activity [6] [mm]	Activity [7] [mm]	Activity [8] [mm]	Activity [9] [mm]	Activity [10] [mm]	Activity [11]
OC(Cn1cncn1)(Cn1cncn1)c1ccc(F)cc1F [FLUCONAZOLE]	24	24	24								
GENTAMICIN				20	20	20	20	20	20	20	
Cc1cc2c(O)c(c1)/C=N\NC(=O)c1ccc(cc1)C(=O)N/N=C\c1cc(O)c(cc1C)/C=N\NC(=O)c1ccc(cc1)C(=O)NN=C2	20	16	22	14	16	16	10	20	14	16	Non-toxic

From ChEMBL document CHEMBL1153614, “Synthesis, spectral characterization, in-vitro microbiological evaluation and cytotoxic activities of novel macrocyclic bis hydrazone” (Eur J Med Chem, 2009)
